# US7435837B2, “Dihydrobenzofuranyl alkanamine derivatives and methods for using same” (Wyeth, priority 2003, dated 2008)
# Structures can show the parent of a compound that is named as a salt.
row,SMILES,melting point
1,"Cc1ccccc1-c1cc(C#N)cc2c1OC(CN)C2 (racemic) (as salt: hydrochloride) [Example 311, (±)-2-(aminomethyl)-7-(2-methylphenyl)-2,3-dihydro-1-benzofuran-5-carbonitrile]",127 to 129 °C
2,"Cc1ccccc1-c1c(Cl)ccc2c1OC(CN)C2 (racemic) (as salt: hydrochloride) [Example 399, (±)-{[6-chloro-7-(2-methylphenyl)-2,3-dihydro-1-benzofuran-2-yl]methyl}amine]",204 to 206 °C
3,"NCC1Cc2c(cccc2-c2ccccc2)O1 (single isomer, unassigned; (+)) (as salt: hydrobromid) [Example 2, (+)-1-(4-phenyl-2,3-dihydro-1-benzofuran-2-yl)methanamine]",225 to 226 °C
4,"Cc1ccccc1-c1cccc2c1CC(CN)O2 (single isomer, unassigned; (+)) (as salt: hydrobromid) [Example 5, (+)-1-[4-(2-methylphenyl)-2,3-dihydro-1-benzofuran-2-yl]methanamine]",232 to 233 °C
5,"NCC1Cc2cccc(-c3ccsc3)c2O1 (single isomer, unassigned; (+)) (as salt: hydrobromid) [Example 45, (+)-1-(7-thien-3-yl-2,3-dihydro-1-benzofuran-2-yl)methanamine]",234 to 236 °C
6,"Cc1ccc(-c2cccc3c2OC(CN)C3)cc1 (single isomer, unassigned; (+)) (as salt: hydrobromid) [Example 71, (+)-1-[7-(4-methylphenyl)-2,3-dihydro-1-benzofuran-2-yl]methanamine]",> 250 °C
7,"NCC1Cc2cccc(-c3ccc(F)cc3)c2O1 (single isomer, unassigned; (+)) (as salt: hydrobromid) [Example 74, (+)-1-[7-(4-fluorophenyl)-2,3-dihydro-1-benzofuran-2-yl]methanamine]",207 to 208 °C
8,"NCC1Cc2cccc(-c3ccc(Cl)cc3)c2O1 (single isomer, unassigned; (+)) (as salt: hydrobromid) [Example 77, (+)-1-[7-(4-chlorophenyl)-2,3-dihydro-1-benzofuran-2-yl]methanamine]",229 to 231 °C
9,"CC(C)(C)c1cccc2c1OC(CN)C2 (single isomer, unassigned; (+)) (as salt: hydrochloride) [Example 26, (+)-1-(7-tert-butyl-2,3-dihydro-1-benzofuran-2-yl)methanamine]",177 to 179 °C
10,"Cc1cccc(-c2cccc3c2OC(CN)C3)c1 (single isomer, unassigned; (+)) (as salt: hydrochloride) [Example 42, (+)-1-[7-(3-methylphenyl)-2,3-dihydro-1-benzofuran-2-yl]methanamine]",196 to 198 °C
11,"Cc1ccccc1-c1cccc2c1OC(CN)C2 (single isomer, unassigned; (+)) (as salt: hydrochloride) [Example 48, (+)-1-[7-(2-methylphenyl)-2,3-dihydro-1-benzofuran-2-yl]methanamine]",211 to 212 °C
12,"NCC1Cc2cccc(-c3ccccc3F)c2O1 (single isomer, unassigned; (+)) (as salt: hydrochloride) [Example 51, (+)-1-[7-(2-fluorophenyl)-2,3-dihydro-1-benzofuran-2-yl]methanamine]",227 to 228 °C
13,"NCC1Cc2cccc(-c3ccccc3C(F)(F)F)c2O1 (single isomer, unassigned; (+)) (as salt: hydrochloride) [Example 55, (+)-1-{7-[2-(trifluoromethyl)phenyl]-2,3-dihydro-1-benzofuran-2-yl}methanamine]",97 to 100 °C
14,"CC(C)c1ccccc1-c1cccc2c1OC(CN)C2 (single isomer, unassigned; (+)) (as salt: hydrochloride) [Example 62, (+)-[7-(2-isopropylphenyl)-2,3-dihydro-1-benzofuran-2-yl]methylamine]",205 to 206 °C
15,"COc1ccc(-c2cccc3c2OC(CN)C3)cc1 (single isomer, unassigned; (+)) (as salt: hydrochloride) [Example 80, (+)-1-[7-(4-methoxyphenyl)-2,3-dihydro-1-benzofuran-2-yl]methanamine]",183 to 186 °C
16,"Cc1cccc(C)c1-c1cccc2c1CC(CN)O2 (single isomer, unassigned; (+)) (as salt: hydrochloride) [Example 126, (+)-1-[4-(2,6-dimethylphenyl)-2,3-dihydro-1-benzofuran-2-yl]methanamine]",> 250 °C
17,"COc1ccccc1-c1cccc2c1OC(CN)C2 (single isomer, unassigned; (+)) (as salt: hydrochloride) [Example 128, (+)-1-[7-(2-methoxyphenyl)-2,3-dihydro-1-benzofuran-2-yl]methanamine]",180 to 184 °C
18,"COc1cccc(-c2cccc3c2OC(CN)C3)c1 (single isomer, unassigned; (+)) (as salt: hydrochloride) [Example 133, (+)-1-[7-(3-methoxyphenyl)-2,3-dihydro-1-benzofuran-2-yl]methanamine]",156 to 158 °C
19,"NCC1Cc2cccc(-c3ccc(C(F)(F)F)cc3)c2O1 (single isomer, unassigned; (+)) (as salt: hydrochloride) [Example 137, (+)-1-{7-[4-(trifluoromethyl)phenyl]-2,3-dihydro-1-benzofuran-2-yl}methanamine]",226 to 229 °C
20,"NCC1Cc2cccc(-c3ccc(Cl)cc3Cl)c2O1 (single isomer, unassigned; (+)) (as salt: hydrochloride) [Example 150, (+)-1-[7-(2,4-dichlorophenyl)-2,3-dihydro-1-benzofuran-2-yl]methanamine]",201 to 204 °C
21,"NCC1Cc2cc(F)cc(-c3ccccc3C(F)(F)F)c2O1 (single isomer, unassigned; (+)) (as salt: hydrochloride) [Example 152, (+)-1-{5-fluoro-7-[2-(trifluoromethyl)phenyl]-2,3-dihydro-1-benzofuran-2-yl}methanamine]",193 to 197 °C
22,"NCC1Cc2c(cccc2-c2ccccc2)O1 (single isomer, unassigned; (-)) (as salt: hydrobromid) [Example 3, (−)-1-(4-phenyl-2,3-dihydro-1-benzofuran-2-yl)methanamine]",227 to 228 °C
23,"Cc1ccccc1-c1cccc2c1CC(CN)O2 (single isomer, unassigned; (-)) (as salt: hydrobromid) [Example 6, (−)-1-[4-(2-methylphenyl)-2,3-dihydro-1-benzofuran-2-yl]methanamine]",231 to 233 °C

# Other lines, results leading:
row,melting point,SMILES
1,227 to 228 °C,"Cc1cc2c(c(-c3ccccc3)c1)OC(CN)C2 (racemic) (as salt: hydrochloride) [Example 281, (±)-{[(5-methyl-7-phenyl-2,3-dihydro-1-benzofuran-2-yl)methyl]amine]"
2,195 to 197 °C,"CCNCC1Cc2cccc(-c3c(Cl)cccc3Cl)c2O1 (racemic) (as salt: hydrochloride) [Example 390, (±)-N-{[7-(2,6-dichlorophenyl)-2,3-dihydro-1-benzofuran-2-yl]methyl}ethanamine]"
3,221 to 223 °C,"NCC1Cc2ccc(Cl)c(-c3ccccc3Cl)c2O1 (racemic) (as salt: hydrochloride) [Example 400, (±)-{[6-chloro-7-(2-chlorophenyl)-2,3-dihydro-1-benzofuran-2-yl]methyl}amine]"
4,212 to 213 °C,"NCCC1Cc2cc(F)cc(-c3c(Cl)cccc3Cl)c2O1 (racemic) (as salt: hydrochloride) [Example 553, (±)-{2-[7-(2,6-dichlorophenyl)-5-fluoro-2,3-dihydro-1-benzofuran-2-yl]ethyl}amine]"
5,160 to 163 °C,"Cc1ccccc1-c1cc(Cl)cc2c1OC(CN)C2 (racemic) (as salt: salt) [Example 95, (±)-1-[5-chloro-7-(2-methylphenyl)-2,3-dihydro-1-benzofuran-2-yl]methanamine]"
6,187 to 189 °C,"NCC1Cc2cccc(-c3cccc(Cl)c3)c2O1 (single isomer, unassigned; (+)) (as salt: hydrobromid) [Example 66, (+)-1-[7-(3-chlorophenyl)-2,3-dihydro-1-benzofuran-2-yl]methanamine]"
7,201 to 203 °C,"NCC1Cc2cc(Cl)cc(-c3ccccc3)c2O1 (single isomer, unassigned; (+)) (as salt: hydrobromid) [Example 85, (+)-1-(5-chloro-7-phenyl-2,3-dihydro-1-benzofuran-2-yl)methanamine]"
8,170 to 172 °C,"Cc1ccccc1-c1cc(Cl)cc2c1OC(CN)C2 (single isomer, unassigned; (+)) (as salt: hydrobromid) [Example 96, (+)-1-[5-chloro-7-(2-methylphenyl)-2,3-dihydro-1-benzofuran-2-yl]methanamine]"
9,128 to 131 °C,"NCC1Cc2cccc(Cc3ccccc3)c2O1 (single isomer, unassigned; (+)) (as salt: hydrochloride) [Example 16, (+)-1-(7-benzyl-2,3-dihydro-1-benzofuran-2-yl)methanamine]"
10,263 to 266 °C,"CNCC1Cc2cc(Cl)cc(-c3ccsc3)c2O1 (single isomer, unassigned; (+)) (as salt: hydrochloride) [Example 93, (+)-N-[(5-chloro-7-thien-3-yl-2,3-dihydro-1-benzofuran-2-yl)methyl]-N-methylamine]"
11,227 to 230 °C,"Cc1ccccc1-c1cc(F)cc2c1OC(CN)C2 (single isomer, unassigned; (+)) (as salt: hydrochloride) [Example 105, (+)-1-[5-fluoro-7-(2-methylphenyl)-2,3-dihydro-1-benzofuran-2-yl]methanamine]"
12,186 to 188 °C,"NCC1Cc2cccc(-c3cccc(F)c3)c2O1 (single isomer, unassigned; (+)) (as salt: hydrochloride) [Example 131, (+)-1-[7-(3-fluorophenyl)-2,3-dihydro-1-benzofuran-2-yl]methanamine]"
